Data set [1] in a line: DPPH free radical antioxidant activity assay. The class given is biochemical. To be noted: dilution 1 ml, wavelength 517 nm; for Inhibition: DPPH assay. The method, then: Antioxidant activity of the synthesized Cr(III) Schiff base complexes was tested using the free radical compound 2,2-diphenyl-1-picrylhydrazyl(DPPH) (25,26). This compound has a violet color when dissolved in ethanol and a strong absorption maximum centered at around 515-520 nm. DPPH became colorless or pale yellow when neutralized. An aliquot of DPPH (0.3 ml) in ethanol ([…]) was added to ethanol(3 ml), followed by addition of Cr(III) complex dissolve in ethanol (0.5 ml)(total Volume 3.8 ml). A UV/visible spectrophotometer was used to monitor the color change at 517 nm after 100 minutes of reaction. A blank sample contained a mixture of the Cr(III) complex in ethanol (0.5 ml) and ethanol (3.3 ml) (Total Volume 3.8 ml) without any DPPH (no violet color). A control sample contained a solution of DPPH (0.3 ml) and ethanol (3.5 ml) (total volume 3.8 ml) without any Cr (III) complex (Violet color remains). The amount of scavenging activity (%) was determined by the method of Mensor et al. (27).
Finally, the % scavenging activities for Schiff base ligands and derived Cr(III) complexes were calculated by applying the formula
Scavenging activity=(Ac−At)/Ac×100%
Where Ac and At represent the absorbance of the control and test samples, respectively (Choudhary et al., 2011)^28
For orientation: Loss of DPPH colour is used to gauge radical scavenging.

The conditions of data set [2]: Eastmond et al., 2008; Katz & salem, 1993; cited from earlier work.

Molecules are shown by their SMILES.

Regarding `Cc1ccc(NC(=O)CC(=O)NNc2cc[nH]c2)cc1` [Ligand 1], in data set [1], the Inhibition worked out at 0.077, the “DPPH Equivalent Antioxidant activity” value is on record as 1.253 and the “Total Antioxidant activity” value turned out to be 65%.
Take `[Cr+3]` [Cr(III) ion]: in data set [2], the Acute toxicity range is 1.5 to 3.3 mg/kg.
Turning to `CC/C=N\NC(=O)CC(=O)Nc1ccc(C)cc1` [Ligand 2, N-[4-methylphenyl)-3-oxo-3[(2Z)-2-propylidene hydrazinyl] propanamide], in data set [1], the Inhibition stood at 0.074, the “DPPH Equivalent Antioxidant activity” value amounted to 1.223 and the “Total Antioxidant activity” value was 66%.

The record behind these values is patent US20230080477A1, “PROCESS OF SYNTHESIS OF NOVEL CHROMIUM (III) COMPLEXES OF SCHIFF BASE LIGANDS AND THEIR USE THERE OF AS THERAPEUTIC AGENTS” (priority 2021, published 2023).
